Data reported in patent US5929038A, “Pharmaceutical preparations which inhibit hepatitis B virus (HBV) replication” (Choongwae Pharmaceutical Co., Ltd., priority 1992, dated 1999).
Values joined by “and” are separate entries in the source; they are usually repeats but may differ in a detail not shown here. Equal values may be shown once.

Test system: HBV DNA replication
Assay: Effects on HBV DNA replication in 2.2.15 cells in culture (intracellular HBV DNA and HBV virion DNA)
Assay type: cell-based, hepatitis B virus
Conditions: for Intracellular HBV DNA, Mono. / Intracellular HBV DNA, RI (Replicating Intermediate): 24 hrs following the 9th day of treatment; for HBV Virion DNA, Day 0: Day 0, before first dose
[1] = 30 μM + Gly. (first group, 123AE/AF/BE/BF)
[2] = 30 μM + Gly. (second group, 123AG/AH/BG/BH)
[3] = 100 μM + 30'Gly. (incubated 30 min with glycosidase)
[4] = 300 μM + 30'Gly. (incubated 30 min with glycosidase)
[5] = 300 μM + Gly. (glucosidase, no incubation)
[6] = 1000 μM + 30'Gly. (incubated 30 min with glycosidase)
[7] = 1000 μM + Gly. (glucosidase, no incubation)

OCC1=CC(O)C2C=COC(O[C@@H]3O[C@H](CO)[C@@H](O)[C@H](O)[C@H]3O)C12 (stereo partly drawn) [Aucubin, 1,4,5, 7α-tetrahydro-5-hydroxy-17-(hydroxymethyl)cyclopenta[c]pyran-1-yl-β-D-glucopyranose]
Intracellular HBV DNA, Mono. [1]: 2.6 pg/μg cell DNA and 2.8 pg/μg cell DNA and 2.4 pg/μg cell DNA and 2.1 pg/μg cell DNA
Intracellular HBV DNA, RI (Replicating Intermediate) [1]: 21 pg/μg cell DNA and 27 pg/μg cell DNA and 22 pg/μg cell DNA and 26 pg/μg cell DNA
HBV Virion DNA, Day 0 [1]: 52 pg/ml culture medium and 76 pg/ml culture medium and 55 pg/ml culture medium
HBV Virion DNA, Day 3 [1]: 59 pg/ml culture medium and 77 pg/ml culture medium and 51 pg/ml culture medium
HBV Virion DNA, Day 6 [1]: 40 pg/ml culture medium and 48 pg/ml culture medium and 66 pg/ml culture medium and 59 pg/ml culture medium
HBV Virion DNA, Day 9 [1]: 15 pg/ml culture medium and 22 pg/ml culture medium
Intracellular HBV DNA, Mono. [2]: 2.6 pg/μg cell DNA and 2.8 pg/μg cell DNA and 2.4 pg/μg cell DNA and 2.1 pg/μg cell DNA
Intracellular HBV DNA, RI (Replicating Intermediate) [2]: 70 pg/μg cell DNA and 75 pg/μg cell DNA and 63 pg/μg cell DNA and 68 pg/μg cell DNA
HBV Virion DNA, Day 0 [2]: 67 pg/ml culture medium
HBV Virion DNA, Day 3 [2]: 94 pg/ml culture medium and 82 pg/ml culture medium and 97 pg/ml culture medium and 62 pg/ml culture medium
HBV Virion DNA, Day 6 [2]: 58 pg/ml culture medium and 61 pg/ml culture medium and 69 pg/ml culture medium
HBV Virion DNA, Day 9 [2]: 55 pg/ml culture medium and 72 pg/ml culture medium and 70 pg/ml culture medium and 67 pg/ml culture medium
Intracellular HBV DNA, Mono. [3]: 2.5 pg/μg cell DNA and 2.4 pg/μg cell DNA and 2.3 pg/μg cell DNA and 2.7 pg/μg cell DNA
Intracellular HBV DNA, RI (Replicating Intermediate) [3]: 33 pg/μg cell DNA and 32 pg/μg cell DNA and 27 pg/μg cell DNA and 26 pg/μg cell DNA
HBV Virion DNA, Day 0 (100 μM + 30'Gly.): 55 pg/ml culture medium and 51 pg/ml culture medium and 86 pg/ml culture medium
HBV Virion DNA, Day 3 (100 μM + 30'Gly.): 80 pg/ml culture medium and 49 pg/ml culture medium and 50 pg/ml culture medium and 57 pg/ml culture medium
HBV Virion DNA, Day 6 (100 μM + 30'Gly.): 50 pg/ml culture medium and 66 pg/ml culture medium and 41 pg/ml culture medium and 45 pg/ml culture medium
HBV Virion DNA, Day 9 (100 μM + 30'Gly.): 16 pg/ml culture medium
Intracellular HBV DNA, Mono. [4]: 2.4 pg/μg cell DNA and 2.6 pg/μg cell DNA and 1.9 pg/μg cell DNA and 2.0 pg/μg cell DNA
Intracellular HBV DNA, RI (Replicating Intermediate) [4]: 11 pg/μg cell DNA and 10 pg/μg cell DNA and 7 pg/μg cell DNA and 9 pg/μg cell DNA
HBV Virion DNA, Day 0 (300 μM + 30'Gly.): 88 pg/ml culture medium and 51 pg/ml culture medium and 50 pg/ml culture medium and 59 pg/ml culture medium
HBV Virion DNA, Day 3 (300 μM + 30'Gly.): 80 pg/ml culture medium and 55 pg/ml culture medium and 61 pg/ml culture medium
HBV Virion DNA, Day 6 (300 μM + 30'Gly.): 54 pg/ml culture medium and 39 pg/ml culture medium and 44 pg/ml culture medium
HBV Virion DNA, Day 9 (300 μM + 30'Gly.): 9 pg/ml culture medium and 7 pg/ml culture medium and 6 pg/ml culture medium and 8 pg/ml culture medium
Intracellular HBV DNA, Mono. [5]: 2.0 pg/μg cell DNA and 2.4 pg/μg cell DNA and 2.5 pg/μg cell DNA
Intracellular HBV DNA, RI (Replicating Intermediate) [5]: 7 pg/μg cell DNA and 6 pg/μg cell DNA and 5 pg/μg cell DNA and 9 pg/μg cell DNA
HBV Virion DNA, Day 0 (300 μM + Gly.): 54 pg/ml culture medium and 59 pg/ml culture medium and 77 pg/ml culture medium and 66 pg/ml culture medium
HBV Virion DNA, Day 3 (300 μM + Gly.): 66 pg/ml culture medium and 89 pg/ml culture medium and 98 pg/ml culture medium
HBV Virion DNA, Day 6 (300 μM + Gly.): 54 pg/ml culture medium and 48 pg/ml culture medium and 44 pg/ml culture medium and 51 pg/ml culture medium
HBV Virion DNA, Day 9 (300 μM + Gly.): 9 pg/ml culture medium and 7 pg/ml culture medium and 5 pg/ml culture medium and 6 pg/ml culture medium
Intracellular HBV DNA, Mono. [6]: 2.3 pg/μg cell DNA and 2.0 pg/μg cell DNA and 2.1 pg/μg cell DNA
Intracellular HBV DNA, RI (Replicating Intermediate) [6]: 3 pg/μg cell DNA and 2 pg/μg cell DNA and 4 pg/μg cell DNA
HBV Virion DNA, Day 0 (1000 μM + 30'Gly.): 84 pg/ml culture medium and 70 pg/ml culture medium and 79 pg/ml culture medium and 59 pg/ml culture medium
HBV Virion DNA, Day 3 (1000 μM + 30'Gly.): 67 pg/ml culture medium and 66 pg/ml culture medium and 78 pg/ml culture medium
HBV Virion DNA, Day 6 (1000 μM + 30'Gly.): 20 pg/ml culture medium and 17 pg/ml culture medium and 24 pg/ml culture medium
HBV Virion DNA, Day 9 (1000 μM + 30'Gly.): 2 pg/ml culture medium and 3 pg/ml culture medium
Intracellular HBV DNA, Mono. [7]: 2.2 pg/μg cell DNA and 2.1 pg/μg cell DNA and 2.3 pg/μg cell DNA and 2.6 pg/μg cell DNA
Intracellular HBV DNA, RI (Replicating Intermediate) [7]: 3 pg/μg cell DNA and 2 pg/μg cell DNA
HBV Virion DNA, Day 0 (1000 μM + Gly.): 64 pg/ml culture medium and 81 pg/ml culture medium and 80 pg/ml culture medium
HBV Virion DNA, Day 3 (1000 μM + Gly.): 70 pg/ml culture medium and 67 pg/ml culture medium
HBV Virion DNA, Day 6 (1000 μM + Gly.): 25 pg/ml culture medium and 18 pg/ml culture medium and 22 pg/ml culture medium and 20 pg/ml culture medium
HBV Virion DNA, Day 9 (1000 μM + Gly.): 1 pg/ml culture medium
